What all share (assay): microbe, parasite or virus in culture
Common to all, as to format: cell-based

Assay [1] deals with B. humptydooensis ATCC BAA-2767. As to conditions: Burkholderia humptydooensis, ATCCBAA2767, read-out: Minimum inhibitory concentration (MIC), B. humptydooensis ATCC BAA-2767.
Assay [2] has as its system P. aeruginosa CDC-0095. As to conditions: Pseudomonas aeruginosa, CDC0095, read-out: Minimum inhibitory concentration, P. aeruginosa CDC-0095.
The subject of assay [3] is A. baumannii CDC-0033. The following applies: Acinetobacter baumannii, CDC0033, read-out: MIC, A. baumannii CDC-0033.
For assay [4], the system named is P. aeruginosa ATCC 27853. As to conditions: Pseudomonas aeruginosa, ATCC27853, read-out: Minimum inhibitory concentration, P. aeruginosa ATCC 27853.
Assay [5] concerns P. aeruginosa ATCC 35151. As to conditions: Pseudomonas aeruginosa, ATCC35151, read-out: Minimum inhibitory concentration, P. aeruginosa ATCC 35151.

In brackets after ≈: the same amount, converted by molar mass.

For the compound `O=C(NCCCN1CCN(C(=O)NC(C(=O)N[C@H]2Cc3ccc(F)c(C(=O)O)c3OB2O)c2cc(F)c(O)c(O)c2Cl)C(=O)C1=O)c1cc(O)c(F)c(O)c1` (stereo partly drawn) [Example 416, (3R)-3-(2-(2-chloro-5-fluoro-3,4-dihydroxyphenyl)-2-(4-(3-(4-fluoro-3,5-dihydroxybenzamido)propyl)-2,3-dioxopiperazine-1-carboxamido)acetamido)-7-fluoro-2-hydroxy-3,4-dihydro-2H-benzo[e][1,2]oxaborinine-8-carboxylic acid], the MIC in assay [1] is below 1 µg/mL; in assay [2] it was below 1 µg/mL; in assay [3], 2 to 4 µg/mL (≈ 2.52 to 5.04 µM); in assay [4], below 1 µg/mL; in assay [5], below 1 µg/mL.

Consider `O=C(NCCCN1CCN(C(=O)NC(C(=O)N[C@H]2Cc3ccc(F)c(C(=O)O)c3OB2O)c2cc(F)c(O)c(O)c2Cl)C(=O)C1=O)c1ccc(O)c(F)c1Cl` (stereo partly drawn) [Example 418, (3R)-3-(2-(4-(3-(2-chloro-3-fluoro-4-hydroxybenzamido)propyl)-2,3-dioxopiperazine-1-carboxamido)-2-(2-chloro-5-fluoro-3,4-dihydroxyphenyl)acetamido)-7-fluoro-2-hydroxy-3,4-dihydro-2H-benzo[e][1,2]oxaborinine-8-carboxylic acid], for which the MIC in assay [1] is below 1 µg/mL; in assay [2], 2 to 4 µg/mL (≈ 2.46 to 4.92 µM); in assay [3] it was below 1 µg/mL; in assay [4], 2 to 4 µg/mL (≈ 2.46 to 4.92 µM); in assay [5] it was below 1 µg/mL.

For `O=C(NCCCN1CCN(C(=O)NC(C(=O)N[C@H]2Cc3ccc(F)c(C(=O)O)c3OB2O)c2cc(F)c(O)c(O)c2Cl)C(=O)C1=O)c1ccc(O)c(Cl)c1F` (stereo partly drawn) [Example 419, (3R)-3-(2-(4-(3-(3-chloro-2-fluoro-4-hydroxybenzamido)propyl)-2,3-dioxopiperazine-1-carboxamido)-2-(2-chloro-5-fluoro-3,4-dihydroxyphenyl)acetamido)-7-fluoro-2-hydroxy-3,4-dihydro-2H-benzo[e][1,2]oxaborinine-8-carboxylic acid], the MIC in assay [1] was 2 to 4 µg/mL (≈ 2.46 to 4.92 µM); in assay [2] it was 2 to 4 µg/mL (≈ 2.46 to 4.92 µM); in assay [3], 8 to 16 µg/mL (≈ 9.85 to 19.7 µM); in assay [4] it was 2 to 4 µg/mL (≈ 2.46 to 4.92 µM); in assay [5], below 1 µg/mL.

Take `O=C(NCCCN1CCN(C(=O)NC(C(=O)N[C@H]2Cc3ccc(F)c(C(=O)O)c3OB2O)c2cc(F)c(O)c(O)c2Cl)C(=O)C1=O)c1c(F)cc(O)cc1Cl` (stereo partly drawn) [Example 421, (3R)-3-(2-(2-chloro-5-fluoro-3,4-dihydroxyphenyl)-2-(4-(3-(2-chloro-6-fluoro-4-hydroxybenzamido)propyl)-2,3-dioxopiperazine-1-carboxamido)acetamido)-7-fluoro-2-hydroxy-3,4-dihydro-2H-benzo[e][1,2]oxaborinine-8-carboxylic acid]: the MIC in assay [1] was 2 to 4 µg/mL (≈ 2.46 to 4.92 µM); in assay [2], 2 to 4 µg/mL (≈ 2.46 to 4.92 µM); in assay [3], 2 to 4 µg/mL (≈ 2.46 to 4.92 µM); in assay [4], 2 to 4 µg/mL (≈ 2.46 to 4.92 µM); in assay [5], below 1 µg/mL.

For `O=C(NCCCN1CCN(C(=O)N[C@@H](C(=O)N[C@H]2Cc3ccc(F)c(C(=O)O)c3OB2O)c2cc(F)c(O)c(O)c2Cl)C(=O)C1=O)c1cc(F)c(O)c(F)c1` [Example 422, (R)-3-((R)-2-(2-chloro-5-fluoro-3,4-dihydroxyphenyl)-2-(4-(3-(3,5-difluoro-4-hydroxybenzamido)propyl)-2,3-dioxopiperazine-1-carboxamido)acetamido)-7-fluoro-2-hydroxy-3,4-dihydro-2H-benzo[e][1,2]oxaborinine-8-carboxylic acid], the MIC in assay [1] is below 1 µg/mL; in assay [2], below 1 µg/mL; in assay [3] it was 2 to 4 µg/mL (≈ 2.51 to 5.03 µM); in assay [4] it was 2 to 4 µg/mL (≈ 2.51 to 5.03 µM); in assay [5], below 1 µg/mL.

Consider `O=C(NCCCN1CCN(C(=O)NC(C(=O)N[C@H]2Cc3ccc(F)c(C(=O)O)c3OB2O)c2cc(F)c(O)c(O)c2Cl)C(=O)C1=O)c1cc(O)cc(O)c1` (stereo partly drawn) [Example 423, (3R)-3-(2-(2-chloro-5-fluoro-3,4-dihydroxyphenyl)-2-(4-(3-(3,5-dihydroxybenzamido)propyl)-2,3-dioxopiperazine-1-carboxamido)acetamido)-7-fluoro-2-hydroxy-3,4-dihydro-2H-benzo[e][1,2]oxaborinine-8-carboxylic acid], for which the MIC was below 1 µg/mL in assay [1]; below 1 µg/mL in assay [2]; 2 to 4 µg/mL (≈ 2.58 to 5.16 µM) in assay [3]; below 1 µg/mL in assay [4]; below 1 µg/mL in assay [5].

Regarding `O=C(O)c1c(F)ccc2c1OB(O)[C@@H](NC(=O)C(NC(=O)N1CCN(C3CCN(C(=O)Nc4cccc(O)c4)CC3)C(=O)C1=O)c1cc(F)c(O)c(O)c1Cl)C2` (stereo partly drawn) [Example 424, (3R)-3-(2-(2-chloro-5-fluoro-3,4-dihydroxyphenyl)-2-(4-(1-((3-hydroxyphenyl)carbamoyl)piperidin-4-yl)-2,3-dioxopiperazine-1-carboxamido)acetamido)-7-fluoro-2-hydroxy-3,4-dihydro-2H-benzo[e][1,2]oxaborinine-8-carboxylic acid], the MIC is 2 to 4 µg/mL (≈ 2.5 to 4.99 µM) in assay [1]; below 1 µg/mL in assay [2]; below 1 µg/mL in assay [3]; below 1 µg/mL in assay [4]; below 1 µg/mL in assay [5].

For the compound `O=C(O)c1c(F)ccc2c1OB(O)[C@@H](NC(=O)C(NC(=O)N1CCN(C3CCN(C(=O)c4cncc(O)c4)CC3)C(=O)C1=O)c1cc(F)c(O)c(O)c1Cl)C2` (stereo partly drawn) [Example 425, (3R)-3-(2-(2-chloro-5-fluoro-3,4-dihydroxyphenyl)-2-(4-(1-(5-hydroxynicotinoyl)piperidin-4-yl)-2,3-dioxopiperazine-1-carboxamido)acetamido)-7-fluoro-2-hydroxy-3,4-dihydro-2H-benzo[e][1,2]oxaborinine-8-carboxylic acid], the MIC in assay [1] was below 1 µg/mL; in assay [2], 2 to 4 µg/mL (≈ 2.54 to 5.08 µM); in assay [3], below 1 µg/mL; in assay [4], below 1 µg/mL; in assay [5], below 1 µg/mL.

For the compound `O=C(O)c1c(F)ccc2c1OB(O)[C@@H](NC(=O)C(NC(=O)N1CCN(C3CCN(C(=O)c4ccc(O)cc4)CC3)C(=O)C1=O)c1cc(F)c(O)c(O)c1Cl)C2` (stereo partly drawn) [Example 427, (3R)-3-(2-(2-chloro-5-fluoro-3,4-dihydroxyphenyl)-2-(4-(1-(4-hydroxybenzoyl)piperidin-4-yl)-2,3-dioxopiperazine-1-carboxamido)acetamido)-7-fluoro-2-hydroxy-3,4-dihydro-2H-benzo[e][1,2]oxaborinine-8-carboxylic acid], the MIC is below 1 µg/mL in assay [1]; 2 to 4 µg/mL (≈ 2.54 to 5.09 µM) in assay [2]; 2 to 4 µg/mL (≈ 2.54 to 5.09 µM) in assay [3]; below 1 µg/mL in assay [4]; below 1 µg/mL in assay [5].

For the compound `O=C(O)c1c(F)ccc2c1OB(O)[C@@H](NC(=O)C(NC(=O)N1CCN(C3CCN(S(=O)(=O)c4cccc(O)c4)CC3)C(=O)C1=O)c1cc(F)c(O)c(O)c1Cl)C2` (stereo partly drawn) [Example 428, (3R)-3-(2-(2-chloro-5-fluoro-3,4-dihydroxyphenyl)-2-(4-(1-((3-hydroxyphenyl)sulfonyl)piperidin-4-yl)-2,3-dioxopiperazine-1-carboxamido)acetamido)-7-fluoro-2-hydroxy-3,4-dihydro-2H-benzo[e][1,2]oxaborinine-8-carboxylic acid], the MIC in assay [1] was above 128 µg/mL; in assay [2], 2 to 4 µg/mL (≈ 2.43 to 4.87 µM); in assay [3], 2 to 4 µg/mL (≈ 2.43 to 4.87 µM); in assay [4] it was 2 to 4 µg/mL (≈ 2.43 to 4.87 µM); in assay [5], below 1 µg/mL.

Take `O=C(O)c1c(F)ccc2c1OB(O)[C@@H](NC(=O)C(NC(=O)N1CCN(C3CCN(S(=O)(=O)c4ccc(O)cc4)CC3)C(=O)C1=O)c1cc(F)c(O)c(O)c1Cl)C2` (stereo partly drawn) [Example 429, (3R)-3-(2-(2-chloro-5-fluoro-3,4-dihydroxyphenyl)-2-(4-(1-((4-hydroxyphenyl)sulfonyl)piperidin-4-yl)-2,3-dioxopiperazine-1-carboxamido)acetamido)-7-fluoro-2-hydroxy-3,4-dihydro-2H-benzo[e][1,2]oxaborinine-8-carboxylic acid]: the MIC is above 128 µg/mL in assay [1]; 2 to 4 µg/mL (≈ 2.43 to 4.87 µM) in assay [2]; 2 to 4 µg/mL (≈ 2.43 to 4.87 µM) in assay [3]; 2 to 4 µg/mL (≈ 2.43 to 4.87 µM) in assay [4]; below 1 µg/mL in assay [5].

On to `O=C(NCCCN1CCN(C(=O)NC(C(=O)N[C@H]2Cc3ccc(F)c(C(=O)O)c3OB2O)c2cc(F)c(O)c(O)c2Cl)C(=O)C1=O)c1ccnc(F)c1` (stereo partly drawn) [Example 466, (3R)-3-(2-(2-chloro-5-fluoro-3,4-dihydroxyphenyl)-2-(4-(3-(2-fluoroisonicotinamido)propyl)-2,3-dioxopiperazine-1-carboxamido)acetamido)-7-fluoro-2-hydroxy-3,4-dihydro-2H-benzo[e][1,2]oxaborinine-8-carboxylic acid], for which the MIC is 8 to 16 µg/mL (≈ 10.5 to 21 µM) in assay [1]; 2 to 4 µg/mL (≈ 2.62 to 5.24 µM) in assay [2]; 2 to 4 µg/mL (≈ 2.62 to 5.24 µM) in assay [3]; 2 to 4 µg/mL (≈ 2.62 to 5.24 µM) in assay [4]; below 1 µg/mL in assay [5].

On to `O=C(O)c1c(F)ccc2c1OB(O)[C@@H](NC(=O)C(NC(=O)N1CCN(C3CCN(C(=O)Cc4cccc(O)c4)CC3)C(=O)C1=O)c1cc(F)c(O)c(O)c1Cl)C2` (stereo partly drawn) [Example 474, (3R)-3-(2-(2-chloro-5-fluoro-3,4-dihydroxyphenyl)-2-(4-(1-(2-(3-hydroxyphenyl)acetyl)piperidin-4-yl)-2,3-dioxopiperazine-1-carboxamido)acetamido)-7-fluoro-2-hydroxy-3,4-dihydro-2H-benzo[e][1,2]oxaborinine-8-carboxylic acid], for which the MIC in assay [1] is below 1 µg/mL; in assay [2], 2 to 4 µg/mL (≈ 2.5 to 5 µM); in assay [3], below 1 µg/mL; in assay [4], 2 to 4 µg/mL (≈ 2.5 to 5 µM); in assay [5], below 1 µg/mL.

Source of the values: US20240270762A1, “PENICILLIN-BINDING PROTEIN INHIBITORS” (priority 2021, published 2024).
